Entries after “also recorded” stand apart in the source; their conditions may differ. Structures can show the parent of a compound that is named as a salt.
Test system: blood drawn from mice
Assay: Blood coagulation assay (presence or absence of blood clots, observed with CCD camera)
Description: Rats or mice (2-3 months old) were sacrificed using CO2 and their blood was extracted directly from the heart using 1 ml syringe and a 23-gauge needle. Blood was transferred to two groups of experimental tubes (400 microliters in each): empty tubes, and tubes containing citrate at a final concentration of 0.35% by weight (e.g., 50 μl of a respective 3.2% stock solution of trisodium citrate in water).
The anti-coagulant activity of the citrate powder was confirmed by recording absence of clot formation during the entire experiment, and thereafter, each of the following components was added to the tubes in both groups, at varying amounts:
=Coral skeleton particulates prepared from Porites lutea (to achieve a final concentration of 50-200 mg/ml)
=Coral skeleton particulates prepared from Stylophora subseriata (to achieve a final concentration of 50-200 mg/ml)
=Geological aragonite (to achieve a final concentration of 50-200 mg/ml)
=amorphous calcium carbonate (ACC) (1-200 mg, to achieve a final concentration of 2-50 mg/ml)
=Glass beads (0.1 mm diameter; to achieve a final concentration of 100 mg/ml)
Coagulation and anti-coagulation activity (presence and absence, respectively, of blood clots) was observed using a CCD camera.

SMILES | coagulation time of citrate-containing blood (final concentration 50 mg/ml, citrate-containing blood, data not shown) | effect of citrate by itself on clotting (blood drawn from mice, 0.35% by weight of citrate, no calcium carbonate)
O=C([O-])[O-].[K+].[K+] [potassium carbonate] | 40 to 45 min | 
O=C(O)CC(O)(CC(=O)O)C(=O)O [citrate, Trisodium citrate] |  | blocked clotting; also recorded: anti-coagulation effect
